Data from PubChem BioAssay (NCI).
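Grown in 96-well plates, cells were treated for 48 hours with each compound at five concentrations. Insufficient inhibition: endpoint recorded as highest concentration tested. The concentration for 50% growth inhibition is given as GI50. TGI: total growth inhibition.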

What was measured:
Test in all cases: NCI-60 cell line screen, 48 h
786-0 renal = system: 786-0 renal
A498 renal = system: A498 renal
A549 NSCLC = system: A549 NSCLC
ACHN renal = system: ACHN renal
BT-549 breast = system: BT-549 breast
CAKI-1 renal = system: CAKI-1 renal
CCRF-CEM leukemia = system: CCRF-CEM leukemia
DU-145 prostate = system: DU-145 prostate
HCC-2998 colon = system: HCC-2998 colon
HCT-15 colon = system: HCT-15 colon
HL-60(TB) leukemia = system: HL-60(TB) leukemia
HOP-62 NSCLC = system: HOP-62 NSCLC
HOP-92 NSCLC = system: HOP-92 NSCLC
HS 578T breast = system: HS 578T breast
HT29 colon = system: HT29 colon
IGROV1 ovarian = system: IGROV1 ovarian
K-562 leukemia = system: K-562 leukemia
KM12 colon = system: KM12 colon
LOX IMVI melanoma = system: LOX IMVI melanoma
MALME-3M melanoma = system: MALME-3M melanoma
MCF7 breast = system: MCF7 breast
MDA-MB-231 breast = system: MDA-MB-231 breast
MDA-MB-435 = system: MDA-MB-435
MOLT-4 leukemia = system: MOLT-4 leukemia
NCI-H23 lung = system: NCI-H23 lung
NCI-H460 lung = system: NCI-H460 lung
NCI-H522 lung = system: NCI-H522 lung
NCI/ADR-RES ovarian = system: NCI/ADR-RES ovarian
OVCAR-4 ovarian = system: OVCAR-4 ovarian
OVCAR-5 ovarian = system: OVCAR-5 ovarian
OVCAR-8 ovarian = system: OVCAR-8 ovarian
PC-3 prostate = system: PC-3 prostate
RPMI-8226 leukemia = system: RPMI-8226 leukemia
RXF 393 renal = system: RXF 393 renal
SF-268 CNS = system: SF-268 CNS
SF-539 CNS = system: SF-539 CNS
SK-MEL-2 melanoma = system: SK-MEL-2 melanoma
SK-MEL-28 melanoma = system: SK-MEL-28 melanoma
SK-MEL-5 melanoma = system: SK-MEL-5 melanoma
SK-OV-3 ovarian = system: SK-OV-3 ovarian
SN12C renal = system: SN12C renal
SNB-75 CNS = system: SNB-75 CNS
SR leukemia = system: SR leukemia
T-47D breast = system: T-47D breast
TK-10 renal = system: TK-10 renal
U251 CNS = system: U251 CNS
UACC-62 melanoma = system: UACC-62 melanoma
UO-31 renal = system: UO-31 renal

C#Cc1ccc(-n2c(/C=C/c3ccc4ccccc4c3)nc3ncccc3c2=O)cc1
GI50 (786-0 renal): 4.08 µM
TGI (786-0 renal): > 100 µM
GI50 (A498 renal): 1.69 µM
TGI (A498 renal): 5.86 µM
GI50 (A549 NSCLC): 2.73 µM
TGI (A549 NSCLC): > 100 µM
GI50 (ACHN renal): 2.57 µM
TGI (ACHN renal): > 100 µM
GI50 (BT-549 breast): 1.98 µM
TGI (BT-549 breast): 5.45 µM
GI50 (CAKI-1 renal): 2.98 µM
TGI (CAKI-1 renal): > 100 µM
GI50 (CCRF-CEM leukemia): 1.53 µM
TGI (CCRF-CEM leukemia): > 100 µM
GI50 (DU-145 prostate): 7.45 µM
TGI (DU-145 prostate): > 100 µM
GI50 (HCC-2998 colon): 2.32 µM
TGI (HCC-2998 colon): 5.04 µM
GI50 (HCT-15 colon): 2.91 µM
TGI (HCT-15 colon): > 100 µM
GI50 (HL-60(TB) leukemia): 1.66 µM
TGI (HL-60(TB) leukemia): 8.83 µM
GI50 (HOP-62 NSCLC): 7.45 µM
TGI (HOP-62 NSCLC): > 100 µM
GI50 (HOP-92 NSCLC): 1.63 µM
TGI (HOP-92 NSCLC): 6.89 µM
GI50 (HS 578T breast): 7.62 µM
TGI (HS 578T breast): > 100 µM
GI50 (HT29 colon): 3.26 µM
TGI (HT29 colon): > 100 µM
GI50 (IGROV1 ovarian): 2.92 µM
TGI (IGROV1 ovarian): > 100 µM
GI50 (K-562 leukemia): 2.43 µM
TGI (K-562 leukemia): > 100 µM
GI50 (KM12 colon): 2.95 µM
TGI (KM12 colon): > 100 µM
GI50 (LOX IMVI melanoma): 0.517 µM
TGI (LOX IMVI melanoma): 3.11 µM
GI50 (MALME-3M melanoma): 4.97 µM
TGI (MALME-3M melanoma): > 100 µM
GI50 (MCF7 breast): 2.43 µM
TGI (MCF7 breast): > 100 µM
GI50 (MDA-MB-231 breast): 3.74 µM
TGI (MDA-MB-231 breast): > 100 µM
GI50 (MDA-MB-435): 2.06 µM
TGI (MDA-MB-435): > 100 µM
GI50 (MOLT-4 leukemia): 2 µM
TGI (MOLT-4 leukemia): > 100 µM
GI50 (NCI-H23 lung): 6.39 µM
TGI (NCI-H23 lung): > 100 µM
GI50 (NCI-H460 lung): 2.88 µM
TGI (NCI-H460 lung): > 100 µM
GI50 (NCI-H522 lung): 5.11 µM
TGI (NCI-H522 lung): > 100 µM
GI50 (NCI/ADR-RES ovarian): 3.29 µM
TGI (NCI/ADR-RES ovarian): > 100 µM
GI50 (OVCAR-4 ovarian): 1.95 µM
TGI (OVCAR-4 ovarian): > 100 µM
GI50 (OVCAR-5 ovarian): 6.88 µM
TGI (OVCAR-5 ovarian): > 100 µM
GI50 (OVCAR-8 ovarian): 3.05 µM
TGI (OVCAR-8 ovarian): > 100 µM
GI50 (PC-3 prostate): 2.35 µM
TGI (PC-3 prostate): > 100 µM
GI50 (RPMI-8226 leukemia): 0.451 µM
TGI (RPMI-8226 leukemia): > 100 µM
GI50 (RXF 393 renal): 1.79 µM
TGI (RXF 393 renal): 5.47 µM
GI50 (SF-268 CNS): 2.6 µM
TGI (SF-268 CNS): > 100 µM
GI50 (SF-539 CNS): 2.91 µM
TGI (SF-539 CNS): > 100 µM
GI50 (SK-MEL-2 melanoma): 2.41 µM
TGI (SK-MEL-2 melanoma): 6.2 µM
GI50 (SK-MEL-28 melanoma): 4.33 µM
TGI (SK-MEL-28 melanoma): > 100 µM
GI50 (SK-MEL-5 melanoma): 1.16 µM
TGI (SK-MEL-5 melanoma): 2.52 µM
GI50 (SK-OV-3 ovarian): 7.55 µM
TGI (SK-OV-3 ovarian): > 100 µM
GI50 (SN12C renal): 3.29 µM
TGI (SN12C renal): > 100 µM
GI50 (SNB-75 CNS): 2.95 µM
TGI (SNB-75 CNS): > 100 µM
GI50 (SR leukemia): 1.4 µM
TGI (SR leukemia): > 100 µM
GI50 (T-47D breast): 3.9 µM
TGI (T-47D breast): > 100 µM
GI50 (TK-10 renal): 4.04 µM
TGI (TK-10 renal): > 100 µM
GI50 (U251 CNS): 3.69 µM
TGI (U251 CNS): > 100 µM
GI50 (UACC-62 melanoma): 2.49 µM
TGI (UACC-62 melanoma): > 100 µM
GI50 (UO-31 renal): 3.11 µM
TGI (UO-31 renal): > 100 µM
